Literature values, collected in patent US6653352B2, “Pain reliever and method of use” (Medical Merchandising, Inc., priority 1999, dated 2003).

Settings: in fats, oils and alcohols

solubility: very soluble in fats, oils and alcohols
Structure (SMILES): COc1cc(CNC(=O)CCCC/C=C/C(C)C)ccc1O [Capsaicin, N-Vanillyl-8-methyl-6-(E)-noneamide]
